According to patent publication US9453051B2, “Cyclosporin derivatives” (priority 2011, dated 2016):
Like-named read-outs stand apart in the source and are kept apart here.

What was measured:
[1] = target: recombinant human wild type Cyp18 (Cyp18 wt) (Homo sapiens, UniProt P62937); experiment: biochemical
Description: The determination was performed on a UV/Vis spectrometer at 10° C. cuvette temperature, whereby the device is operated at 390 nm in kinetic-mode (measurement buffer: 35 mM HEPES/NaOH pH 7.8 (AppliChem A1069)). 0.58 nM recombinant human wild type Cyp18 (Cyp18 wt), 2.33 nM bovine serum albumin (BSA) and 1 mg/ml chymotrypsin (Merck) solved in 35 mM HEPES/NaOH pH 7.8 as well as different concentration of each test substance, where appropriate, were in the cuvette. The reaction was started with a stock solution of Suc-Ala-Ala-Pro-Phe-4-nitroanilide (Bachem, 10 mg/ml DMSO) as substrate so that a final substrate concentration of 32 μM resulted. The extinction-time-curves were evaluated after expiry of the fast phase of the reaction i.e. after approximately 60 seconds according to a rate equation of a first-order reaction.

NFAT = experiment: Cellular NFAT-reporter-gene assay (GloResponse NFAT-RE-luc2P HEK293); type: cell-based; details: Homo sapiens, read-out: NFAT-reporter-gene assay IC50
Description: An antigen specific stimulation of the T-cell receptor causes the activation of transcription factors such as e.g. NFAT (nuclear factor of activated T cells). NFAT-activation is essential for the expression of interleukine-2 and therefore, for the proliferation of T-cells as part of the immune response. A stable NFAT-reporter-gene cell line enables the analysis of modulators of the NFAT-pathways and thus, the evaluation of the immunosuppressive effects of compounds.
The stably transfected reporter-gene cell line GloResponse NFAT-RE-luc2P HEK293 (promega Corp. USA) was cultivated in DMEM (10% FCS; 2 mM Glutamin; 200 μg/ml Hygromycin) and seeded on 96-well plates (200.000 cells/well). The compounds to be tested were either added to the cells in a 2-point-determination (5 μM and 10 μM) or an ICH-determination (concentration series 4.1 nM-1 μM). […] Immediately thereafter the cells were stimulated with 5 nM PMA and 2 μM ionomycin and incubated over 16 h (37° C.; cell incubator). This double stimulation simulates a T-cell receptor stimulation and causes a NFAT activation with subsequently expression of the luciferase-reporter-gene. The amount of luciferase was quantitatively determined after 16 h by measurement of the bioluminescence by Bright-Glo Luciferase-Assay-System (Promega Corp., USA). The averaged luciferase values of the vehicle treated (1% DMSO) and with PMA/ionomycin stimulated cells were used as positive control and reference value.

calcineurin = calcineurin (Homo sapiens, UniProt P62937+P63098+Q08209); experiment: Inhibition of the phosphatase activity of calcineurin (scintillation-proximity-assay, in presence of Cyp18);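 further: calcineurin dephosphorylation of a ³³P-labelled RII phosphopeptide, captured on streptavidin-coated wells and read by scintillation counting, with uninhibited enzyme activity taken as 100%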
Description: The measurement was carried out by incubation of 10 μMol of the biotinylated phosphopeptide [sequence]pSer-Val-Ala-Ala-Glu (MW=2192.0) (RH-peptide) marked with ^33P in a sample buffer (40 mM Tris-HCl, pH 7.5, 100 mM NaCl, 6 mM MgCl2, 0.5 mM dithiothreitol, 1 mM. CaCl2, 0.1 mg/ml bovine serum albumin) in presence of 50 nM calmodulin and 1.32 nM calcineurin at 30° C. for 20 min in a 96 well micro titer plate (Costar, Bodenheim, Germany). The total volume of the assay/well was 100 μl. After this reaction time a 90 μl aliquot of the reaction mixture was transferred into a scintillation cavity coated with streptavidin and incubated for 20 min at 22° C. After a washing step the RII phosphopeptide-associated ^33P radioactivity was measured in a MicroBeta Top Counter (Wallac) and the enzyme activity was indicated as average value of three measurements±S.D. The uninhibited dephosphorylation activity has been set on 100%.

Chain of recombinant human wild type Cyp18 (Cyp18 wt) (P62937 whole entry): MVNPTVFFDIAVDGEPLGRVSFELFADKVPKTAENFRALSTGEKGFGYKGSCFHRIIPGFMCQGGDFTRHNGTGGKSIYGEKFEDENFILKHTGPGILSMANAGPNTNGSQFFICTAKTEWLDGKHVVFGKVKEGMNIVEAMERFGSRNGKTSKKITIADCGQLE

Structure (SMILES)	IC50 [1]	IC50 (NFAT; HEK293, 16 h)	IC50 (calcineurin)	IC50 (NFAT; HEK293 reporter cells stimulated with 5 nM PMA and 2 μM ionomycin, 16 h)
CC[C@@H]1NC(=O)[C@H]([C@H](O)[C@H](C)Cc2nc3cc(C(=O)OCCN4CCOCC4)ccc3[nH]2)N(C)C(=O)[C@H](C(C)C)N(C)C(=O)[C@H](CC(C)C)N(C)C(=O)[C@H](CC(C)C)N(C)C(=O)[C@@H](C)NC(=O)[C@H](C)NC(=O)[C@H](CC(C)C)N(C)C(=O)[C@H](C(C)C)NC(=O)[C@H](CC(C)C)N(C)C(=O)CN(C)C1=O [Compound 27]	0.0059 µM	7.4 µM	6.4 µM	–
CC[C@@H]1NC(=O)[C@H]([C@H](O)[C@H](C)Cc2nc3cc(C(=O)NN)ccc3[nH]2)N(C)C(=O)[C@H](C(C)C)N(C)C(=O)[C@H](CC(C)C)N(C)C(=O)[C@H](CC(C)C)N(C)C(=O)[C@@H](C)NC(=O)[C@H](C)NC(=O)[C@H](CC(C)C)N(C)C(=O)[C@H](C(C)C)NC(=O)[C@H](CC(C)C)N(C)C(=O)CN(C)C1=O [Compound 19]	0.0054 µM	> 10 µM	7 µM	–
CC[C@@H]1NC(=O)[C@H]([C@H](O)[C@H](C)Cc2nc3cc(C(=O)NC(CCC(=O)O)C(=O)NC(CCC(=O)O)C(=O)O)ccc3[nH]2)N(C)C(=O)[C@H](C(C)C)N(C)C(=O)[C@H](CC(C)C)N(C)C(=O)[C@H](CC(C)C)N(C)C(=O)[C@@H](C)NC(=O)[C@H](C)NC(=O)[C@H](CC(C)C)N(C)C(=O)[C@H](C(C)C)NC(=O)[C@H](CC(C)C)N(C)C(=O)CN(C)C1=O (some centres unmarked) [Compound 13]	0.0111 µM	> 10 µM	> 10 µM	–
CC[C@@H]1NC(=O)[C@H]([C@H](O)[C@H](C)Cc2nc3cc(C(=O)OC(C)C)ccc3[nH]2)N(C)C(=O)[C@H](C(C)C)N(C)C(=O)[C@H](CC(C)C)N(C)C(=O)[C@H](CC(C)C)N(C)C(=O)[C@@H](C)NC(=O)[C@H](C)NC(=O)[C@H](CC(C)C)N(C)C(=O)[C@H](C(C)C)NC(=O)[C@H](CC(C)C)N(C)C(=O)CN(C)C1=O [Compound 25]	–	10 µM	–	–
CC[C@@H]1NC(=O)[C@H]([C@H](O)[C@H](C)Cc2nc3cccc(C(=O)OC)c3[nH]2)N(C)C(=O)[C@H](C(C)C)N(C)C(=O)[C@H](CC(C)C)N(C)C(=O)[C@H](CC(C)C)N(C)C(=O)[C@@H](C)NC(=O)[C@H](C)NC(=O)[C@H](CC(C)C)N(C)C(=O)[C@H](C(C)C)NC(=O)[C@H](CC(C)C)N(C)C(=O)CN(C)C1=O [Compound 29]	0.0295 µM	10 µM	> 10 µM	–
CC[C@@H]1NC(=O)[C@H]([C@H](O)[C@H](C)Cc2nc3cc(/C=C/C(=O)O)ccc3[nH]2)N(C)C(=O)[C@H](C(C)C)N(C)C(=O)[C@H](CC(C)C)N(C)C(=O)[C@H](CC(C)C)N(C)C(=O)[C@@H](C)NC(=O)[C@H](C)NC(=O)[C@H](CC(C)C)N(C)C(=O)[C@H](C(C)C)NC(=O)[C@H](CC(C)C)N(C)C(=O)CN(C)C1=O [Compound 15]	0.0048 µM	> 10 µM	> 10 µM	–
CC[C@@H]1NC(=O)[C@H]([C@H](O)[C@H](C)Cc2nc3c(F)c(F)cc(S(=O)(=O)O)c3[nH]2)N(C)C(=O)[C@H](C(C)C)N(C)C(=O)[C@H](CC(C)C)N(C)C(=O)[C@H](CC(C)C)N(C)C(=O)[C@@H](C)NC(=O)[C@H](C)NC(=O)[C@H](CC(C)C)N(C)C(=O)[C@H](C(C)C)NC(=O)[C@H](CC(C)C)N(C)C(=O)CN(C)C1=O [Compound 20]	0.0067 µM	> 10 µM	> 10 µM	–
CC[C@@H]1NC(=O)[C@H]([C@H](O)[C@H](C)Cc2nc3ccc4c(S(=O)(=O)O)cccc4c3[nH]2)N(C)C(=O)[C@H](C(C)C)N(C)C(=O)[C@H](CC(C)C)N(C)C(=O)[C@H](CC(C)C)N(C)C(=O)[C@@H](C)NC(=O)[C@H](C)NC(=O)[C@H](CC(C)C)N(C)C(=O)[C@H](C(C)C)NC(=O)[C@H](CC(C)C)N(C)C(=O)CN(C)C1=O [Compound 45]	–	> 10 µM	–	–
CC[C@@H]1NC(=O)[C@H]([C@H](O)[C@H](C)Cc2nc3cc(C(=O)OCCN(C)C)ccc3[nH]2)N(C)C(=O)[C@H](C(C)C)N(C)C(=O)[C@H](CC(C)C)N(C)C(=O)[C@H](CC(C)C)N(C)C(=O)[C@@H](C)NC(=O)[C@H](C)NC(=O)[C@H](CC(C)C)N(C)C(=O)[C@H](C(C)C)NC(=O)[C@H](CC(C)C)N(C)C(=O)CN(C)C1=O [Compound 26]	0.0108 µM	> 10 µM	6.2 µM	–
CC[C@@H]1NC(=O)[C@H]([C@H](O)[C@H](C)Cc2nc3cc(N4CCN(C)CC4)ccc3[nH]2)N(C)C(=O)[C@H](C(C)C)N(C)C(=O)[C@H](CC(C)C)N(C)C(=O)[C@H](CC(C)C)N(C)C(=O)[C@@H](C)NC(=O)[C@H](C)NC(=O)[C@H](CC(C)C)N(C)C(=O)[C@H](C(C)C)NC(=O)[C@H](CC(C)C)N(C)C(=O)CN(C)C1=O [Compound 41]	0.003 µM	> 10 µM	> 10 µM	–
CC[C@@H]1NC(=O)[C@H]([C@H](O)[C@H](C)CC2=NCCN2)N(C)C(=O)[C@H](C(C)C)N(C)C(=O)[C@H](CC(C)C)N(C)C(=O)[C@H](CC(C)C)N(C)C(=O)[C@@H](C)NC(=O)[C@H](C)NC(=O)[C@H](CC(C)C)N(C)C(=O)[C@H](C(C)C)NC(=O)[C@H](CC(C)C)N(C)C(=O)CN(C)C1=O [Compound 42]	–	–	–	10 µM
CC[C@@H]1NC(=O)[C@H]([C@H](O)[C@H](C)Cc2nc3ncnc(O)c3[nH]2)N(C)C(=O)[C@H](C(C)C)N(C)C(=O)[C@H](CC(C)C)N(C)C(=O)[C@H](CC(C)C)N(C)C(=O)[C@@H](C)NC(=O)[C@H](C)NC(=O)[C@H](CC(C)C)N(C)C(=O)[C@H](C(C)C)NC(=O)[C@H](CC(C)C)N(C)C(=O)CN(C)C1=O [Compound 18]	0.0014 µM	> 10 µM	–	–
CC[C@@H]1NC(=O)[C@H]([C@H](O)[C@H](C)Cc2nc3cc(C(=O)N4CCCC4C(=O)N4CCC[C@H]4C(=O)N4CCCC4C(=O)N4CCC[C@H]4C(=O)N4CCCC4C(=O)N4CCC[C@H]4C(=O)O)ccc3[nH]2)N(C)C(=O)[C@H](C(C)C)N(C)C(=O)[C@H](CC(C)C)N(C)C(=O)[C@H](CC(C)C)N(C)C(=O)[C@@H](C)NC(=O)[C@H](C)NC(=O)[C@H](CC(C)C)N(C)C(=O)[C@H](C(C)C)NC(=O)[C@H](CC(C)C)N(C)C(=O)CN(C)C1=O (some centres unmarked) [Compound 49]	0.0309 µM	–	> 10 µM	–
CCCCOC(=O)c1ccc2[nH]c(C[C@@H](C)[C@@H](O)[C@H]3C(=O)N[C@@H](CC)C(=O)N(C)CC(=O)N(C)[C@@H](CC(C)C)C(=O)N[C@@H](C(C)C)C(=O)N(C)[C@@H](CC(C)C)C(=O)N[C@@H](C)C(=O)N[C@H](C)C(=O)N(C)[C@@H](CC(C)C)C(=O)N(C)[C@@H](CC(C)C)C(=O)N(C)[C@@H](C(C)C)C(=O)N3C)nc2c1 [Compound 11]	–	10 µM	–	–
CC[C@@H]1NC(=O)[C@H]([C@H](O)[C@H](C)Cc2nc3nc(S)nc(S)c3[nH]2)N(C)C(=O)[C@H](C(C)C)N(C)C(=O)[C@H](CC(C)C)N(C)C(=O)[C@H](CC(C)C)N(C)C(=O)[C@@H](C)NC(=O)[C@H](C)NC(=O)[C@H](CC(C)C)N(C)C(=O)[C@H](C(C)C)NC(=O)[C@H](CC(C)C)N(C)C(=O)CN(C)C1=O [Compound 16]	0.0151 µM	–	7.5 µM	–
CC[C@@H]1NC(=O)[C@H]([C@H](O)[C@H](C)Cc2nc3cccc(C(=O)O)c3n2C)N(C)C(=O)[C@H](C(C)C)N(C)C(=O)[C@H](CC(C)C)N(C)C(=O)[C@H](CC(C)C)N(C)C(=O)[C@@H](C)NC(=O)[C@H](C)NC(=O)[C@H](CC(C)C)N(C)C(=O)[C@H](C(C)C)NC(=O)[C@H](CC(C)C)N(C)C(=O)CN(C)C1=O [Compound 55]	0.209 µM	–	> 10 µM	–
CC[C@@H]1NC(=O)[C@H]([C@H](O)[C@H](C)Cc2nc3ccc(C(=O)OC)c(C(=O)OC)c3[nH]2)N(C)C(=O)[C@H](C(C)C)N(C)C(=O)[C@H](CC(C)C)N(C)C(=O)[C@H](CC(C)C)N(C)C(=O)[C@@H](C)NC(=O)[C@H](C)NC(=O)[C@H](CC(C)C)N(C)C(=O)[C@H](C(C)C)NC(=O)[C@H](CC(C)C)N(C)C(=O)CN(C)C1=O [Compound 30]	0.0291 µM	> 10 µM	–	–
CC[C@@H]1NC(=O)[C@H]([C@H](O)[C@H](C)CC2=NC(C(=O)O)CO2)N(C)C(=O)[C@H](C(C)C)N(C)C(=O)[C@H](CC(C)C)N(C)C(=O)[C@H](CC(C)C)N(C)C(=O)[C@@H](C)NC(=O)[C@H](C)NC(=O)[C@H](CC(C)C)N(C)C(=O)[C@H](C(C)C)NC(=O)[C@H](CC(C)C)N(C)C(=O)CN(C)C1=O (some centres unmarked) [Compound 43]	0.0453 µM	5.3 µM	–	–
CC[C@@H]1NC(=O)[C@H]([C@H](O)[C@H](C)Cc2nc3cc(C(=O)NCCOCCOCCNC(=O)[C@@H]4C[C@H](C(=O)O)C[C@H](C(=O)O)C4)ccc3[nH]2)N(C)C(=O)[C@H](C(C)C)N(C)C(=O)[C@H](CC(C)C)N(C)C(=O)[C@H](CC(C)C)N(C)C(=O)[C@@H](C)NC(=O)[C@H](C)NC(=O)[C@H](CC(C)C)N(C)C(=O)[C@H](C(C)C)NC(=O)[C@H](CC(C)C)N(C)C(=O)CN(C)C1=O [Compound 67]	0.0084 µM	–	> 10 µM	–
CC[C@@H]1NC(=O)[C@H]([C@H](O)[C@H](C)Cc2nc3cc(C(=O)NCCN4CCOCC4)ccc3[nH]2)N(C)C(=O)[C@H](C(C)C)N(C)C(=O)[C@H](CC(C)C)N(C)C(=O)[C@H](CC(C)C)N(C)C(=O)[C@@H](C)NC(=O)[C@H](C)NC(=O)[C@H](CC(C)C)N(C)C(=O)[C@H](C(C)C)NC(=O)[C@H](CC(C)C)N(C)C(=O)CN(C)C1=O [Compound 53]	0.0127 µM	–	4.2 µM	–
